Laboratory results reported in paper PMC9817970 (Cancers, 2022).

How the values were obtained:
Assay in all cases: Kinase panel profiling
Format in all cases: biochemical
Conditions in all cases: 10 μM ATP
DMPK2 = molecular target: T1, DMPK2 (Homo sapiens, UniProt Q6DT37)
T1 construct: purchased Reaction Biology Corp
Protocol: (§1) Kinase panel profiling was conducted by Reaction Biology Corp. (San Diego, CA, USA). A single dose (1.0 μM) of 6r was tested against 371 recombinant human kinases in the presence of 10 μM ATP.

PLK1 = molecular target: T2, PLK1 (Homo sapiens, UniProt P53350)
T2 construct: purchased Reaction Biology Corp
Protocol: as §1

RIPK3 = molecular target: T3, RIPK3 (Homo sapiens, UniProt Q9Y572)
T3 construct: purchased Reaction Biology Corp
Protocol: as §1

PKCnu/PRKD3 = molecular target: T4, PKCnu/PRKD3 (Homo sapiens, UniProt O94806)
T4 construct: purchased Reaction Biology Corp
Protocol: as §1

CLK1 = molecular target: T5, CLK1 (Homo sapiens, UniProt P49759)
T5 construct: purchased Reaction Biology Corp
Protocol: as §1

MEK2 = molecular target: T6, MEK2 (Homo sapiens, UniProt P36507)
T6 construct: purchased Reaction Biology Corp
Protocol: as §1

CAMKK1 = molecular target: T7, CAMKK1 (Homo sapiens, UniProt Q8N5S9)
T7 construct: purchased Reaction Biology Corp
Protocol: as §1

FES/FPS = molecular target: T8, FES/FPS (Homo sapiens, UniProt P07332)
T8 construct: purchased Reaction Biology Corp
Protocol: as §1

PKCepsilon = molecular target: T9, PKCepsilon (Homo sapiens, UniProt Q02156)
T9 construct: purchased Reaction Biology Corp
Protocol: as §1

TYK1/LTK = molecular target: T10, TYK1/LTK (Homo sapiens, UniProt P29376)
T10 construct: purchased Reaction Biology Corp
Protocol: as §1

TRKA = molecular target: T11, TRKA (Homo sapiens, UniProt P04629)
T11 construct: purchased Reaction Biology Corp
Protocol: as §1

CDK2/cyclin O = molecular target: T12, CDK2/cyclin O (Homo sapiens, UniProt P24941)
T12 construct: purchased Reaction Biology Corp
Protocol: as §1

MLK1/MAP3K9 = molecular target: T13, MLK1/MAP3K9 (Homo sapiens, UniProt P80192)
T13 construct: purchased Reaction Biology Corp
Protocol: as §1

ERBB2/HER2 = molecular target: T14, ERBB2/HER2 (Homo sapiens, UniProt P04626)
T14 construct: purchased Reaction Biology Corp
Protocol: as §1

MYO3A = molecular target: T15, MYO3A (Homo sapiens, UniProt Q8NEV4)
T15 construct: purchased Reaction Biology Corp
Protocol: as §1

MSK1/RPS6KA5 = molecular target: T16, MSK1/RPS6KA5 (Homo sapiens, UniProt O75582)
T16 construct: purchased Reaction Biology Corp
Protocol: as §1

DRAK1/STK17A = molecular target: T17, DRAK1/STK17A (Homo sapiens, UniProt Q9UEE5)
T17 construct: purchased Reaction Biology Corp
Protocol: as §1

RSK1 = molecular target: T18, RSK1 (Homo sapiens, UniProt Q15418)
T18 construct: purchased Reaction Biology Corp
Protocol: as §1

PLK4/SAK = molecular target: T19, PLK4/SAK (Homo sapiens, UniProt O00444)
T19 construct: purchased Reaction Biology Corp
Protocol: as §1

FLT3 = molecular target: T20, FLT3 (Homo sapiens, UniProt P36888)
T20 construct: purchased Reaction Biology Corp
Protocol: as §1

MEK3 = molecular target: T21, MEK3 (Homo sapiens, UniProt P46734)
T21 construct: purchased Reaction Biology Corp
Protocol: as §1

PDGFRa = molecular target: T22, PDGFRa (Homo sapiens, UniProt P16234)
T22 construct: purchased Reaction Biology Corp
Protocol: as §1

PAK1 = molecular target: T23, PAK1 (Homo sapiens, UniProt Q13153)
T23 construct: purchased Reaction Biology Corp
Protocol: as §1

MLCK/MYLK = molecular target: T24, MLCK/MYLK (Homo sapiens, UniProt Q15746)
T24 construct: purchased Reaction Biology Corp
Protocol: as §1

LIMK1 = molecular target: T25, LIMK1 (Homo sapiens, UniProt P53667)
T25 construct: purchased Reaction Biology Corp
Protocol: as §1

ACK1 = molecular target: T26, ACK1 (Homo sapiens, UniProt Q07912)
T26 construct: purchased Reaction Biology Corp
Protocol: as §1

P38b/MAPK11 = molecular target: T27, P38b/MAPK11 (Homo sapiens, UniProt Q15759)
T27 construct: purchased Reaction Biology Corp
Protocol: as §1

FRK/PTK5 = molecular target: T28, FRK/PTK5 (Homo sapiens, UniProt P42685)
T28 construct: purchased Reaction Biology Corp
Protocol: as §1

TSSK3/STK22C = molecular target: T29, TSSK3/STK22C (Homo sapiens, UniProt Q96PN8)
T29 construct: purchased Reaction Biology Corp
Protocol: as §1

CK2a = molecular target: T30, CK2a (Homo sapiens, UniProt P68400)
T30 construct: purchased Reaction Biology Corp
Protocol: as §1

TNK1 = molecular target: T31, TNK1 (Homo sapiens, UniProt Q13470)
T31 construct: purchased Reaction Biology Corp
Protocol: as §1

MEK5 = molecular target: T32, MEK5 (Homo sapiens, UniProt Q13163)
T32 construct: purchased Reaction Biology Corp
Protocol: as §1

CTK/MATK = molecular target: T33, CTK/MATK (Homo sapiens, UniProt P42679)
T33 construct: purchased Reaction Biology Corp
Protocol: as §1

MEKK2 = molecular target: T34, MEKK2 (Homo sapiens, UniProt Q9Y2U5)
T34 construct: purchased Reaction Biology Corp
Protocol: as §1

CDK2/Cyclin A1 = molecular target: T35, CDK2/Cyclin A1 (Homo sapiens, UniProt P24941)
T35 construct: purchased Reaction Biology Corp
Protocol: as §1

HIPK1 = molecular target: T36, HIPK1 (Homo sapiens, UniProt Q86Z02)
T36 construct: purchased Reaction Biology Corp
Protocol: as §1

TSSK2 = molecular target: T37, TSSK2 (Homo sapiens, UniProt Q96PF2)
T37 construct: purchased Reaction Biology Corp
Protocol: as §1

YES/YES1 = molecular target: T38, YES/YES1 (Homo sapiens, UniProt P07947)
T38 construct: purchased Reaction Biology Corp
Protocol: as §1

PLK2 = molecular target: T39, PLK2 (Homo sapiens, UniProt Q9NYY3)
T39 construct: purchased Reaction Biology Corp
Protocol: as §1

CAMK1b = molecular target: T40, CAMK1b (Homo sapiens, UniProt Q6P2M8)
T40 construct: purchased Reaction Biology Corp
Protocol: as §1

CDK5/P25 = molecular target: T41, CDK5/P25 (Homo sapiens, UniProt Q00535)
T41 construct: purchased Reaction Biology Corp
Protocol: as §1

BRAF = molecular target: T42, BRAF (Homo sapiens, UniProt P15056)
T42 construct: purchased Reaction Biology Corp
Protocol: as §1

T37 sequence (Q96PF2 whole entry): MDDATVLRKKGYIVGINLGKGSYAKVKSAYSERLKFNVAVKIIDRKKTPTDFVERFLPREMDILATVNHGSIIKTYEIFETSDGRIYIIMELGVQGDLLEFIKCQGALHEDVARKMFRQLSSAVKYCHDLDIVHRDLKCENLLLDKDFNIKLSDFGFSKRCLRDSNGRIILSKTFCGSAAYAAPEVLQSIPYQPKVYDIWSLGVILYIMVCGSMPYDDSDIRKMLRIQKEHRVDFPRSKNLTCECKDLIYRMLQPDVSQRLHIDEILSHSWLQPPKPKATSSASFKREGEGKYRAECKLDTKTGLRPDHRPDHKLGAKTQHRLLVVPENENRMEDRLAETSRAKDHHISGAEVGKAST
T27 sequence (Q15759 whole entry): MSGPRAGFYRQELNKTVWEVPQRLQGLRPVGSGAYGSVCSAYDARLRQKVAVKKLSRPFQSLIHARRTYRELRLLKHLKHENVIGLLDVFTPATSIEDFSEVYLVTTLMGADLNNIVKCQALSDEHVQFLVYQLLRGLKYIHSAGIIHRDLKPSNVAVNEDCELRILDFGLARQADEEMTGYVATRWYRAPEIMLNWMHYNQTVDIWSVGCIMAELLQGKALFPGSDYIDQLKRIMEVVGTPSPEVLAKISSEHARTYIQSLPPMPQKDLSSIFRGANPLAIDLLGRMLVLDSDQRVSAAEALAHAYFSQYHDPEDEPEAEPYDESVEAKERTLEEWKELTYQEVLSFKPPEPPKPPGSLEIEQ
T31 sequence (Q13470 whole entry): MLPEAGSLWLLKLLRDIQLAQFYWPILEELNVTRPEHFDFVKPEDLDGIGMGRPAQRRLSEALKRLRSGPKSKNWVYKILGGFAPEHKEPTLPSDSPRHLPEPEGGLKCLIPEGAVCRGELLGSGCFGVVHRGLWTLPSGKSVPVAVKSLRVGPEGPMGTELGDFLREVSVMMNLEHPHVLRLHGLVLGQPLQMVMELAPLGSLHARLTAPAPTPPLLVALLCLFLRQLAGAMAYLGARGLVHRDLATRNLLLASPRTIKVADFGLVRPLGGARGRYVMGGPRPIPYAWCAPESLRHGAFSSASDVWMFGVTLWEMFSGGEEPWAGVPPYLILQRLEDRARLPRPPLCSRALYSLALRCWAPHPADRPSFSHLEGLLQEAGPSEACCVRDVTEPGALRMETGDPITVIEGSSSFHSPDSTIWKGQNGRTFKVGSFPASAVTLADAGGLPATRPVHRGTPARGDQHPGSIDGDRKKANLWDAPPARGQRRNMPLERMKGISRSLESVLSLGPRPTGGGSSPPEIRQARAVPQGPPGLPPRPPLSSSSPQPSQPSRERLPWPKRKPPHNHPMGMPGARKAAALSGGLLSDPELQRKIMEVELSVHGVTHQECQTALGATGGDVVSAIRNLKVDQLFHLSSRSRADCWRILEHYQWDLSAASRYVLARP
T29 sequence (Q96PN8 whole entry): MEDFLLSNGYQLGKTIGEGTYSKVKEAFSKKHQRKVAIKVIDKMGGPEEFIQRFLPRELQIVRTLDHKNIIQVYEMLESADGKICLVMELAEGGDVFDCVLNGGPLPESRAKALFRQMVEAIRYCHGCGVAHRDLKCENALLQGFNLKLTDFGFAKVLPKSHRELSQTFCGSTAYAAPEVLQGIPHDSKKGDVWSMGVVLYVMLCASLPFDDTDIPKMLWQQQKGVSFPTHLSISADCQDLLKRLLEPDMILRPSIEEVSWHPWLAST
T8 sequence (P07332 whole entry): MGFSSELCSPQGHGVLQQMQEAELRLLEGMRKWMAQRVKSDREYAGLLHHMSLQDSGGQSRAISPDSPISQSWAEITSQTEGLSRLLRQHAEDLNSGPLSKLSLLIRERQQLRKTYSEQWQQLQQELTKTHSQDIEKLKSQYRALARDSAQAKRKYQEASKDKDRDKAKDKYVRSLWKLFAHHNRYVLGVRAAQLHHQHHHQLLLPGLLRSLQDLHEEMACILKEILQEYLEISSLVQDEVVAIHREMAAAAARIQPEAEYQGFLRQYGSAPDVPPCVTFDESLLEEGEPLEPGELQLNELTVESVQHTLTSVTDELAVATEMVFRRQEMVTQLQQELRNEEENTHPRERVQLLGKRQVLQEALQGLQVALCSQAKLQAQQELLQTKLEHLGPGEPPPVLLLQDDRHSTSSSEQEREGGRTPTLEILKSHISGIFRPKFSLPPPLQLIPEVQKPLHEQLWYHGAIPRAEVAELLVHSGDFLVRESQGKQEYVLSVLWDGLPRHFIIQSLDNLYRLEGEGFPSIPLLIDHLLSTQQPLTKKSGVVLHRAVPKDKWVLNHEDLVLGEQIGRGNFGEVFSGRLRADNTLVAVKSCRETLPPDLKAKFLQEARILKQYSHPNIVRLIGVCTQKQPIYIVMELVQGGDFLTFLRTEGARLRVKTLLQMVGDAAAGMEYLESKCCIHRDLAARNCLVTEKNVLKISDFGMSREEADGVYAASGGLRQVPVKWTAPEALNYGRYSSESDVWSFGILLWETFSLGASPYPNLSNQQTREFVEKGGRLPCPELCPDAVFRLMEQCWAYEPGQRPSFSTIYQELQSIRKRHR
T1 sequence (Q6DT37 whole entry): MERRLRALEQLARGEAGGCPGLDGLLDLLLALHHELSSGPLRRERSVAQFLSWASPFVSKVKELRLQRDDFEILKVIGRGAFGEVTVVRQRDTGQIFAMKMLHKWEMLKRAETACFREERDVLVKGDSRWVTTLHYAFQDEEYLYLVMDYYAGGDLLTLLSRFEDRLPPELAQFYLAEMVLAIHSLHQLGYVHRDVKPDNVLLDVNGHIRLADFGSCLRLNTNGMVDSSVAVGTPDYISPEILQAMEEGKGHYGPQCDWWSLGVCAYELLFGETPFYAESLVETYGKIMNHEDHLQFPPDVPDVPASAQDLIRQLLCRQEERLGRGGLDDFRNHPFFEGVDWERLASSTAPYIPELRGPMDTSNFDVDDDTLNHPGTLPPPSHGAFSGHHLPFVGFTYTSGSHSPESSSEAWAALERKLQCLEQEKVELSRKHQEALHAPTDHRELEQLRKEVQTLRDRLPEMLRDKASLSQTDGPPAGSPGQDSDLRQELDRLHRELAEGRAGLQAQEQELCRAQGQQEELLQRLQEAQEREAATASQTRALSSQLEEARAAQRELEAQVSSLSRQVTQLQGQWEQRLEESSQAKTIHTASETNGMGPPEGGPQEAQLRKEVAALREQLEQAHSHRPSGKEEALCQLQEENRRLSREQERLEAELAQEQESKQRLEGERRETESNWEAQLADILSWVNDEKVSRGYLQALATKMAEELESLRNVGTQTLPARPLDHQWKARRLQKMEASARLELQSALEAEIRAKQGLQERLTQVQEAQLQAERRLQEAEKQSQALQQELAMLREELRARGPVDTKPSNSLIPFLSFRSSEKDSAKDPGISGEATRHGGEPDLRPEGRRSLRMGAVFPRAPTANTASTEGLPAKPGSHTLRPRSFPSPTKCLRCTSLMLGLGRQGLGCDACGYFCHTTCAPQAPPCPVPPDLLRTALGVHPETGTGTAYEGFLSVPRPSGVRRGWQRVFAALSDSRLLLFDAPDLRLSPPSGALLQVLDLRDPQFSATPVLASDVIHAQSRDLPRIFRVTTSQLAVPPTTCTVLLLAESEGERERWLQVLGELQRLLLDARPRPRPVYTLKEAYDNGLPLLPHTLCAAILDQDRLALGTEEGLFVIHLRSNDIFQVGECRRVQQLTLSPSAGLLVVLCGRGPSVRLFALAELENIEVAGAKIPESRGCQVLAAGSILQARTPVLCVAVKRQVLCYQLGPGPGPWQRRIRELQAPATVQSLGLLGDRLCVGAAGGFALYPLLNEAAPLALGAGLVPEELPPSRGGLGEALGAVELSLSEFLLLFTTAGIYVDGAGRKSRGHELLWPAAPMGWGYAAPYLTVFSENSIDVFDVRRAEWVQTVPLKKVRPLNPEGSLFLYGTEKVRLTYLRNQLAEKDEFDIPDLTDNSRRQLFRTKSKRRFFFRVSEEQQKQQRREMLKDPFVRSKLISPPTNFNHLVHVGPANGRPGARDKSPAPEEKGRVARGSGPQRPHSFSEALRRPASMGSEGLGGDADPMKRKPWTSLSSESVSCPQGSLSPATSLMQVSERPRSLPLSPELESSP
T38 sequence (P07947 whole entry): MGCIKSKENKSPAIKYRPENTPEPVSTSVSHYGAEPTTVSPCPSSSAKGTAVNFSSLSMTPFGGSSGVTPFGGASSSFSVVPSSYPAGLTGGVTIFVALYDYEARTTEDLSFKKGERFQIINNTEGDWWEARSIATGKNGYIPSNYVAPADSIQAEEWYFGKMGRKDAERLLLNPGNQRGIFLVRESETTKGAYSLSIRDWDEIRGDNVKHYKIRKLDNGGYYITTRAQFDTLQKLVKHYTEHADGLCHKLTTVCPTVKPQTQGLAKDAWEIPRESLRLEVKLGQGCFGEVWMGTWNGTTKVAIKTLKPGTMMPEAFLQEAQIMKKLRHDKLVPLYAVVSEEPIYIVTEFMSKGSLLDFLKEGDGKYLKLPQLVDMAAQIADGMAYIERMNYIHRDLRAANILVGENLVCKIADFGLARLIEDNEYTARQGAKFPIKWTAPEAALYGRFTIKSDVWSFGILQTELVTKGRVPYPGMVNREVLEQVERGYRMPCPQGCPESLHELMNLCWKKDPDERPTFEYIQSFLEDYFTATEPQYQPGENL
T40 sequence (Q6P2M8 whole entry): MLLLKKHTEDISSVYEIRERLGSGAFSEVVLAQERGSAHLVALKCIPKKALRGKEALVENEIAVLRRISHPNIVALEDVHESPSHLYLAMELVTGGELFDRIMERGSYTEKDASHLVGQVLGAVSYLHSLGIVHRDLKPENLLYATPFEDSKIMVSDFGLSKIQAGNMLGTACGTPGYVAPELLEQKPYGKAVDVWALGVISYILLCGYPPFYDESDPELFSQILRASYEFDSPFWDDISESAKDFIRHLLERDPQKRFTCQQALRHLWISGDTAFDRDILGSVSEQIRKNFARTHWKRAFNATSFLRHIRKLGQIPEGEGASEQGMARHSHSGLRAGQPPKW

Compound `Cc1ccc(NC(=O)c2ccc(CN3CCN(C)CC3)c(C(F)(F)F)c2)cc1-c1cnc2sc(N)nc2c1` [6r] has an inhibition at 1 µM (DMPK2) of 8%, an inhibition at 1 µM (PLK1) of 0% and an inhibition at 1 µM (RIPK3) of 82.5%. For the same compound, the inhibition at 1 µM (PKCnu/PRKD3) was 23.8%, the inhibition at 1 µM (CLK1) was 0% and the inhibition at 1 µM (MEK2) was 7.1%. For the same compound, the inhibition at 1 µM (CAMKK1) was 7.2%, the inhibition at 1 µM (FES/FPS) was 39.7% and the inhibition at 1 µM (PKCepsilon) was 0%. For the same compound, the inhibition at 1 µM (TYK1/LTK) was 1%, the inhibition at 1 µM (TRKA) was 9.7% and the inhibition at 1 µM (CDK2/cyclin O) was 12.3%. It also gave an inhibition at 1 µM (MLK1/MAP3K9) of 0%, an inhibition at 1 µM (ERBB2/HER2) of 5.4% and an inhibition at 1 µM (MYO3A) of 15%. It also gave an inhibition at 1 µM (MSK1/RPS6KA5) of 0%, an inhibition at 1 µM (DRAK1/STK17A) of 0% and an inhibition at 1 µM (RSK1) of 23.4%. It also gave an inhibition at 1 µM (PLK4/SAK) of 10.4%, an inhibition at 1 µM (FLT3) of 0% and an inhibition at 1 µM (MEK3) of 5.2%. It also gave an inhibition at 1 µM (PDGFRa) of 96.7%, an inhibition at 1 µM (PAK1) of 6.9% and an inhibition at 1 µM (MLCK/MYLK) of 11%. It also gave an inhibition at 1 µM (LIMK1) of 87.2%, an inhibition at 1 µM (ACK1) of 39.9% and an inhibition at 1 µM (P38b/MAPK11) of 77.7%. It also gave an inhibition at 1 µM (FRK/PTK5) of 98.4%, an inhibition at 1 µM (TSSK3/STK22C) of 0% and an inhibition at 1 µM (CK2a) of 21.7%. The inhibition at 1 µM (TNK1) was 36.2%, the inhibition at 1 µM (MEK5) was 6.5% and the inhibition at 1 µM (CTK/MATK) was 8.1%. The inhibition at 1 µM (MEKK2) was 11.1%, the inhibition at 1 µM (CDK2/Cyclin A1) was 7.6% and the inhibition at 1 µM (HIPK1) was 5.2%. It also gave an inhibition at 1 µM (TSSK2) of 0%, an inhibition at 1 µM (YES/YES1) of 77% and an inhibition at 1 µM (PLK2) of 3.9%. The inhibition at 1 µM (CAMK1b) was 5.4%, the inhibition at 1 µM (CDK5/P25) was 8.7% and the inhibition at 1 µM (BRAF) was 97.4%.
